In patent US10987382B2, “Solanum dubium seeds and honey (extracted from bee hives in Acacia tree populated area) combination for treatment of asthma and bronchial asthma” (priority 2015, dated 2021):

Test system: Carrageenan induced paw oedema in Wister Rats
Test: Carrageenan induced paw oedema (anti-inflammatory activity)
Type: in vivo, rat
Details: for % reduction in edema volume: 40 mg/kg i.p.
Procedure: And anti-inflammatory study of aqueous crude extract of S. dubuim seeds, honey and S. dubuim seeds and honey (combination) on Wister Rats (42 rats), done to evaluate the anti inflammatory effects in animals using the method of Carrageenan induced paw oedema. (Nayak and Patel, 2010).
The first group serve as control and receive normal saline (1 ml/kg, orally), the second group served as standard and were administrated standard drug diclofenac sodium (100 mg/kg i.p.). The remaining groups were treated with, the third group received honey (2 ml/kg, orally), the fourth group are treated with the S. dubium seeds (2 ml/kg orally), the fifth group are treated with combination (2 ml/kg orally), the sixth group are treated with combination (4 ml/kg orally) and group seventh treated with standard drug hydrocortisone (40 mg/kg i.p.). A mark was made on both the hind paws just below the tibio-tarsal junction. After 30 min of the above treatment an inflammatory oedema was induced in the left hind paw by inject 0.1 ml solution of Carrageenan, in the planter tissue of all the animals. The paw volume was measured at first hour and followed every hour till the fifths hour after administration of carrageenan of each group. The difference between the initial and subsequence reading gave the actual edema volume. […] 100 mg/kg.
Finally the results of the anti-inflammatory activity of the fractions of methanolic extract (144) Wister Rats. […] Also the alcoholic extract of all fractions decreased rat paw edema at the end of 5th hour. The paw volume was measured initially at 0, 1, 2, 3, 4 and 5 h after Carrageenan injection using digital paw edema meter. Percent inhibition of inflammation was calculated using the formula: % Inhibition=100(1−vt/vc). Where (vc) represents edema volume in control and (vt) edema volume in group treated with sample.

Structure (SMILES): C[C@]12CCC(=O)C=C1CC[C@@H]1[C@@H]2[C@@H](O)C[C@@]2(C)[C@H]1CC[C@]2(O)C(=O)CO [hydrocortisone]
- % reduction in edema volume (after 4 hour): 70.39%
- % reduction in edema volume (after 5 hour): 76.35%

Structure (SMILES): O=C(O)Cc1ccccc1Nc1c(Cl)cccc1Cl [diclofenac sodium]
- inhibition at 100 mg/kg (Rattus norvegicus, ip, 100 mg/kg i.p., after 4 hour, read-out: % inhibition of paw edema): 74.3%
